Experimental findings from patent publication US9670172B2, “Heterocyclic compounds and methods of use” (Medivation Technologies, Inc., priority 2014, dated 2017) are described below.

Like-named read-outs stand apart in the source and are kept apart here.

Data set [1] relates to SREBP2. The data set can be described thus: SREBP2 cleavage in HEPG2 cells (Western blot normalized to actin). Format: cell-based. Particulars: Homo sapiens, read-out: Average SREBP2 cleavage (% Inhibition, n = 3). As for the experimental part: Average SREBP2 cleavage in HEPG2 cells was measured in the presence of compounds disclosed in Table 1. HepG2 cells were seeded at 500,000 cells per well in 6-well plates in DMEM supplemented with 10% FBS. After 2 days, cells were treated with compounds (20 μM) for 1 day in DMEM without FBS. Western blots were normalized with respect to actin.
The results are shown in Table 3 as percent inhibition@20 μM, and in Table 4 as percent inhibition@5 μM.
For orientation: Immunoblotting shows a protein as a band on a membrane.

A short description of data set [2]: HepG2 cell viability by MTS. The settings on record: human, HepG2 cells, 3 days, DMEM without FBS, MTS, read-out: Average Viability (% Inhibition, n = 3). It counts as cell-based. The protocol:
For viability measurements, HepG2 cells were seeded at 5,000 cells per well in 96-well plates in DMEM supplemented with 10% FBS. After 1 day in culture, cells were treated with compounds (20 μM & 5 μM) for 3 days in DMEM without FBS. Viability was measured by MTS. Treatment with compounds (20 μM & 5 μM) was carried out in medium without FBS, and viability was measured by MTS. […]

Setting [3] is: 24 h, 20 μM, HepG2 cells, 1 day, DMEM without FBS.

In general, inhibition refers to the percentage by which the read-out fell short of the control. On to `Cc1ccc(S(=O)(=O)Nc2cccc(-c3nc(-c4ccc(NS(=O)(=O)C(F)(F)F)cc4Cl)cs3)c2)cc1` [Compound 78, N-{3-[4-(2-chloro-4-trifluoromethanesulfonamidophenyl)-1,3-thiazol-2-yl]phenyl}-4-methylbenzene-1-sulfonamide], for which the inhibition at 5 µM in data set [1] (HepG2 cells) stood at 38%. Moreover, the cytotoxicity at 3 days, 5 μM in data set [2] turned out to be 87%. `O=S(=O)(Nc1ccc(-c2csc(-c3ccc(C(F)(F)F)c(OCc4ccccc4)c3)n2)c(Cl)c1)C(F)(F)F` [Compound 73, N-(4-{2-[3-(benzyloxy)-4-(trifluoromethyl)phenyl]-1,3-thiazol-4-yl}-3-chlorophenyl)-1,1,1-trifluoromethanesulfonamide]: in data set [1] (HepG2 cells), the inhibition at 5 µM came to 64%. For the same compound, in data set [2], the cytotoxicity at 3 days, 5 μM came to 99%. With `O=S(=O)(Nc1ccc(-c2csc(-c3ccc4cc[nH]c4c3)n2)c(Cl)c1)C(F)(F)F` [Compound 72, N-{3-chloro-4-[2-(1H-indol-6-yl)-1,3-thiazol-4-yl]phenyl}-1,1,1-trifluoromethanesulfonamide], the inhibition at 5 µM in data set [1] (HepG2 cells) came to 61%. The cytotoxicity at 3 days, 5 μM in data set [2] came out at 94%. Take `CS(=O)(=O)Nc1cc(-c2nc(-c3ccc(NS(=O)(=O)C(F)(F)F)cc3Cl)cs2)ccn1` [Compound 62, N-{3-chloro-4-[2-(2-methanesulfonamidopyridin-4-yl)-1,3-thiazol-4-yl]phenyl}-1,1,1-trifluoromethanesulfonamide]: the inhibition at 20 µM in data set [1] (setting [3]) stood at 0%. Moreover, the cytotoxicity at 3 days, 20 μM in data set [2] was determined as 0%. For `O=S(=O)(Nc1ccc(-c2csc(-c3ccnc4[nH]ccc34)n2)c(Cl)c1)C(F)(F)F` [Compound 87, N-[3-chloro-4-(2-{1H-pyrrolo[2,3-b]pyridin-4-yl}-1,3-thiazol-4-yl)phenyl]-1,1,1-trifluoromethanesulfonamide], the inhibition at 5 µM in data set [1] (HepG2 cells) was 50%. Also, in data set [2], the cytotoxicity at 3 days, 5 μM is 9%.

`CCCc1cc(-c2nc(-c3ccc(NS(=O)(=O)C(F)(F)F)c(O)c3)cs2)ccn1` [Compound 63, 1,1,1-trifluoro-N-(2-hydroxy-4-(2-(2-propylpyridin-4-yl)thiazol-4-yl)phenyl)methanesulfonamide]: the inhibition at 20 µM in data set [1] (setting [3]) amounted to 39%. The cytotoxicity at 3 days, 20 μM in data set [2] stood at 47%. `CCCc1cc(-c2nc(-c3ccc(NS(=O)(=O)C(F)(F)F)c(OC)c3)cs2)ccn1` [Compound 58, 1,1,1-trifluoro-N-{2-methoxy-4-[2-(2-propylpyridin-4-yl)-1,3-thiazol-4-yl]phenyl}methanesulfonamide]: in data set [1] (setting [3]), the inhibition at 20 µM stood at 29.4%. Further, in data set [2], the cytotoxicity at 3 days, 20 μM amounted to 67.9%. On to `Cc1cnccc1-c1nc(-c2ccc(NS(=O)(=O)C(F)(F)F)cc2Cl)cs1` [Compound 86, N-{3-chloro-4-[2-(3-methylpyridin-4-yl)-1,3-thiazol-4-yl]phenyl}-1,1,1-trifluoromethanesulfonamide], for which the inhibition at 5 µM in data set [1] (HepG2 cells) worked out at 54%. In addition, in data set [2], the cytotoxicity at 3 days, 5 μM was 27%. Turning to `O=C(c1ccc(-c2nc(-c3ccc(NS(=O)(=O)C(F)(F)F)cc3Cl)cs2)cc1)N1CCCCC1` [Compound 67, N-(3-chloro-4-{2-[4-(piperidine-1-carbonyl)phenyl]-1,3-thiazol-4-yl}phenyl)-1,1,1-trifluoromethanesulfonamide], in data set [1] (setting [3]), the inhibition at 20 µM was found to be 3%. The cytotoxicity at 3 days, 20 μM in data set [2] came out at 20%. As for `COc1ccc(-c2nc(-c3ccc(NS(=O)(=O)C(F)(F)F)cc3Cl)cs2)cc1OC` [Compound 79, N-{3-chloro-4-[2-(3,4-dimethoxyphenyl)-1,3-thiazol-4-yl]phenyl}-1,1,1-trifluoromethanesulfonamide], in data set [1] (HepG2 cells), the inhibition at 5 µM came to 65%. Moreover, in data set [2], the cytotoxicity at 3 days, 5 μM turned out to be 74%. Consider `Nc1cc(-c2nc(-c3ccc(NS(=O)(=O)C(F)(F)F)cc3Cl)cs2)ccn1` [Compound 61, N-{4-[2-(2-aminopyridin-4-yl)-1,3-thiazol-4-yl]-3-chlorophenyl}-1,1,1-trifluoromethanesulfonamide], for which the inhibition at 20 µM in data set [1] (setting [3]) was found to be 2%. The cytotoxicity at 3 days, 20 μM in data set [2] turned out to be 43%. For the compound `O=S(=O)(Nc1ccc(-c2csc(-c3ccc(F)cc3C(F)(F)F)n2)c(Cl)c1)C(F)(F)F` [Compound 81, N-[3-chloro-4-[2-[4-fluoro-2-(trifluoromethyl)phenyl]thiazol-4-yl]phenyl]-1,1,1-trifluoro-methanesulfonamide], the inhibition at 5 µM in data set [1] (HepG2 cells) stood at 44%. Also, in data set [2], the cytotoxicity at 3 days, 5 μM stood at 88%.

Turning to `O=S(=O)(Nc1ccc(-c2csc(-c3ccccc3-c3ccccc3)n2)c(Cl)c1)C(F)(F)F` [Compound 74, N-{3-chloro-4-[2-(2-phenylphenyl)-1,3-thiazol-4-yl]phenyl}-1,1,1-trifluoromethanesulfonamide], the inhibition at 5 µM in data set [1] (HepG2 cells) came to 76%. In data set [2], the cytotoxicity at 3 days, 5 μM is 97%. In the case of `O=S(=O)(Nc1ccc(-c2csc(-c3ccnc(Cl)c3)n2)c(Cl)c1)C(F)(F)F` [Compound 95, N-(3-chloro-4-(2-(2-chloropyridin-4-yl)thiazol-4-yl)phenyl)-1,1,1-trifluoromethanesulfonamide], the inhibition at 5 µM in data set [1] (HepG2 cells) came to 39%. Also, in data set [2], the cytotoxicity at 3 days, 5 μM turned out to be 86%. As to `O=S(=O)(Nc1ccc(-c2csc(-c3cccc(CO)c3)n2)c(Cl)c1)C(F)(F)F` [Compound 83, N-(3-chloro-4-{2-[3-(hydroxymethyl)phenyl]-1,3-thiazol-4-yl}phenyl)-1,1,1-trifluoromethanesulfonamide], the inhibition at 5 µM in data set [1] (HepG2 cells) came to 2%. Also, the cytotoxicity at 3 days, 5 μM in data set [2] is 0%. For the compound `O=S(=O)(Nc1ccc(-c2csc(-c3ccnc(NS(=O)(=O)C(F)(F)F)c3)n2)c(Cl)c1)C(F)(F)F` [Compound 66, N-{3-chloro-4-[2-(2-trifluoromethanesulfonamidopyridin-4-yl)-1,3-thiazol-4-yl]phenyl}-1,1,1-trifluoromethanesulfonamide], the inhibition at 20 µM in data set [1] (setting [3]) is 0%. Besides, in data set [2], the cytotoxicity at 3 days, 20 μM was 11%. For the compound `CCCc1cc(-c2nc(-c3ccc(NS(=O)(=O)C(F)(F)F)cc3Cl)cs2)ccn1` [Compound 4, N-(3-chloro-4-(2-(2-propylpyridin-4-yl)thiazol-4-yl)phenyl)-1,1,1-trifluoromethanesulfonamide], in data set [1] (HepG2, 24 h), the inhibition at 20 µM stood at 96.1%. Also, the cytotoxicity at 3 days, 20 μM in data set [2] was 94.4%. As to `O=S(=O)(Nc1ccc(-c2csc(-c3c(F)cnc4[nH]ccc34)n2)c(Cl)c1)C(F)(F)F` [Compound 89, N-[3-chloro-4-(2-{5-fluoro-1H-pyrrolo[2,3-b]pyridin-4-yl}-1,3-thiazol-4-yl)phenyl]-1,1,1-trifluoromethanesulfonamide], in data set [1] (HepG2 cells), the inhibition at 5 µM amounted to 53%. With `O=S(=O)(Nc1ccc(-c2csc(-c3csc4ccccc34)n2)c(Cl)c1)C(F)(F)F` [Compound 90, N-{4-[2-(1-benzothiophen-3-yl)-1,3-thiazol-4-yl]-3-chlorophenyl}-1,1,1-trifluoromethanesulfonamide], the inhibition at 5 µM in data set [1] (HepG2 cells) is 64%. Further, the cytotoxicity at 3 days, 5 μM in data set [2] amounted to 99%.

Take `O=S(=O)(Nc1ccc(-c2csc(-c3ccnc(NC4CCCC4)c3)n2)c(Cl)c1)C(F)(F)F` [Compound 92, N-(3-chloro-4-{2-[2-(cyclopentylamino)pyridin-4-yl]-1,3-thiazol-4-yl}phenyl)-1,1,1-trifluoromethanesulfonamide]: the inhibition at 5 µM in data set [1] (HepG2 cells) was 59%. For the same compound, the cytotoxicity at 3 days, 5 μM in data set [2] came out at 94%.

With `Cc1noc(C)c1-c1nc(-c2ccc(NS(=O)(=O)C(F)(F)F)cc2Cl)cs1` [Compound 77, N-{3-chloro-4-[2-(dimethyl-1,2-oxazol-4-yl)-1,3-thiazol-4-yl]phenyl}-1,1,1-trifluoromethanesulfonamide], the inhibition at 5 µM in data set [1] (HepG2 cells) worked out at 56%. Moreover, the cytotoxicity at 3 days, 5 μM in data set [2] was found to be 41%. For the compound `CCCc1cc(-c2nc(-c3ccc(NS(=O)(=O)C(F)(F)F)cc3)cs2)ccn1` [Compound 1, 1,1,1-trifluoro-N-(4-(2-(2-propylpyridin-4-yl)thiazol-4-yl)phenyl)methanesulfonamide], in data set [1] (setting [3]), the inhibition at 20 µM is 73.7%. In data set [2], the cytotoxicity at 3 days, 20 μM was found to be 92.1%.

Turning to `COc1cc(-c2csc(-c3ccnc(C(C)(C)C)c3)n2)ccc1NS(=O)(=O)C(F)(F)F` [Compound 59, N-(4-(2-(2-tert-butylpyridin-4-yl)thiazol-4-yl)-2-methoxyphenyl)-1,1,1-trifluoromethanesulfonamide], in data set [1] (setting [3]), the inhibition at 20 µM was 60.6%. Moreover, the cytotoxicity at 3 days, 20 μM in data set [2] amounted to 99.8%. In the case of `COc1cc(-c2csc(-c3ccnc(CC(C)C)c3)n2)ccc1NS(=O)(=O)C(F)(F)F` [Compound 57, 1,1,1-trifluoro-N-(2-methoxy-4-{2-[2-(2-methylpropyl)pyridin-4-yl]-1,3-thiazol-4-yl}phenyl)methanesulfonamide], the inhibition at 20 µM in data set [1] (setting [3]) came out at 46.9%. The cytotoxicity at 3 days, 20 μM in data set [2] came out at 56.4%. Consider `O=S(=O)(Nc1ccc(-c2csc(-c3cncc4ccccc34)n2)c(Cl)c1)C(F)(F)F` [Compound 75, N-{3-chloro-4-[2-(isoquinolin-4-yl)-1,3-thiazol-4-yl]phenyl}-1,1,1-trifluoromethanesulfonamide], for which the inhibition at 5 µM in data set [1] (HepG2 cells) turned out to be 55%. Moreover, the cytotoxicity at 3 days, 5 μM in data set [2] came out at 88%.
